# Structures can show the parent of a compound that is named as a salt.
# Target: alpha-2-receptor
# Assay: Radioligand binding, alpha-2 adrenoceptor, rat cerebral cortices, [^3 H]-rauwolscine
# Conditions: for Ki: rat cerebral cortices, [^3 H]-rauwolscine; for alpha-2 - Selectivity Ki alpha-1/Ki alpha 2: ratio of Ki alpha-1 to Ki alpha-2
# Method: The compounds were assessed for alpha-adrenergic receptor subtype selectivity by use of radioligand binding techniques as described previously (DeBernardis et.al. J. Med. Chem. 28, 1398 (1985)).
Ki [nM],alpha-2 - Selectivity Ki alpha-1/Ki alpha 2,SMILES
5,242,"COc1ccc2c(c1)CCCC2CN(C)CCc1cccn1C (centres unmarked) [Example 12, 1-((N-Methylamino)methyl-N-(2-(N-methyl2-pyrrolyl)-ethyl))-6-methoxy tetralin fumarate]"
0.6,292,"COc1cc2c(c(OC)c1)C(CN(C)CCc1cccs1)CCC2 (centres unmarked) [Example 26, 1-((N-Methylamino)methyl-N-(2-(2-thienyl)ethyl))-6,8-dimethoxy tetralin hydrochloride]"
4,124,"CN(CCc1cccc(O)c1)CC1CCCc2cc(O)ccc21 (centres unmarked) [Example 82, 1-((N-Methylamino)methyl-N-(2-(m-hydroxyphenyl)ethyl))-6-hydroxy tetralin hydrochloride]"
3,177,"CN(CCc1cccs1)CC1CCCc2c1ccc(O)c2I (centres unmarked) [Example 115, 1-((N-Methylamino)methyl-N-(2-(2-thienyl)ethyl))-5-iodo-6-hydroxy tetralin hydrochloride]"
1.6,278,"CN(CCc1cccs1)CC1CCCc2c1ccc(O)c2O (centres unmarked) [Example 87, 1-((N-Methylamino)methyl-N-(2-(2-thienyl)ethyl))-5,6-dihydroxy tetralin hydrochloride]"
1.2,204,"c1csc(C2CCN(CC3CCCc4c3ccc3c4OCO3)C2)c1 (centres unmarked) [Example 144, 5,6-Methylenedioxy-1-(3-(2-thienyl)pyrrolidino-1-methyl) tetralin methanesulfonate]"
13,98,"CCOc1ccc2c(c1)CCCC2CN(C)CCc1cccc(N)c1 (centres unmarked) [Example 69, 1-((N-Methylamino)methyl-N-(2-(m-aminophenyl)ethyl))-6-ethoxy tetralin dihydrochloride]"
8.6,7,"COc1ccc2c(c1)CCC2CN1CCC(c2cccc(F)c2)C1 (centres unmarked) [Example 153, 5-Methoxy-1-(3-(m-fluorophenyl)pyrrolidino-1-methyl) indane hydrochloride]"
1.3,93,"CN(c1ccc2c(c1)CCCC2CN1CCC(c2ccccc2)C1)S(C)(=O)=O (centres unmarked) [Example 193, 6-(N-methylmethylsulfonamido)-1-(3-(phenylpyrrolidino-1-methyl)tetralin hydrochloride]"
8,107,"COc1cc2c(cc1C)C(CN(C)CCc1ccco1)CCC2 (centres unmarked) [Example 128, 1-((N-Methylamino)methyl-N-(2-(2-furyl)ethyl))-6-methoxy 7-methyl tetralin hydrochloride]"
1.6,353,"CN(CCc1cccs1)CC1CCCc2cc(O)ccc21 (centres unmarked) [Example 7, 1-((N-Methylamino)methyl-N(2-(2-thienyl)ethyl))-6-hydroxy tetralin hydrochloride]"
4.9,35,"COc1cccc2c1CCCC2CN1CCC(c2cccs2)C1 (centres unmarked) [Example 146, 5-Methoxy1-(3-(2-thienyl)pyrrolidino-1-methyl) tetralin hydrochloride]"
4.2,85,"CN(CCc1cccc(F)c1)CC1CCCc2c1ccc1c2OCCO1 (centres unmarked) [Example 167, 1-((N-Methylamino)methyl N-(2-m-fluorophenethyl))-5,6-ethylenedioxy tetralin methanesulfonate]"
18,102,"CCCN(CCc1cccs1)CC1CCCc2cc(OC)ccc21 (centres unmarked) [Example 58, 1-((N propylamino)methyl)-N-(2-(2-thienyl)ethyl))-6-methoxy tetralin hydrochloride]"
3.6,55,"CN(CCc1cccs1)CC1CCCc2c(Cl)cccc21 (centres unmarked) [Example 129, 1-((N-Methylamino)methyl-N-(2-(2-thieny)ethyl))-5-chloro tetralin hydrochloride]"
6,233,"CCN(CCc1ccco1)CC1CCCc2cc(OC)ccc21 (centres unmarked) [Example 43, 1-((N-Ethylamino)methyl-N-(2-(2-furyl)ethyl))-6-methoxy tetralin hydrochloride]"
1.5,333,"COc1ccc2c(c1)CCCC2CN(C)CCc1ccsc1 (centres unmarked) [Example 6d, 1--((N-methylamino)methyl N-(2-(3-thienyl)ethyl))-6-methoxy tetralin hydrochloride]"
4.8,183,"COc1cc2c(cc1F)C(CN(C)CCc1ccco1)CCC2 (centres unmarked) [Example 141, 1-((N-methylamino)methyl-N-(2-(2-furyl)ethyl))-6-methoxy-7-fluoro tetralin methanesulfonate]"
5,105,"CN(CCc1cccc(F)c1)CC1CCCc2ccccc21 (centres unmarked) [Example 70, 1-((N-Methylamino)methyl-N-(2-(m-fluorophenyl)ethyl))-tetralin hydrochloride]"
3,165,"COc1ccc2c(c1OC)CCCC2CN(C)CCc1cccs1 (centres unmarked) [Example 86, 1-((N-Methylamino)methyl-N-(2-(2-thienyl)ethyl))-5,6-dimethoxy tetralin hydrochloride]"
6.5,19,"Fc1ccc2c(c1)CCCC2CN1CCC(c2ccccc2)C1 (centres unmarked) [Example 148, 6-Fluoro-1-(3-phenylpyrrolidino-1-methyl) tetralin methanesulfonate]"
6,21,"Nc1ccc2c(c1)CCCC2CN1CCC(c2ccccc2)C1 (centres unmarked) [Example 156, 6-Amino-1-(3-phenylpyrrolidino-1-methyl) tetralin dihydrochloride]"
6,195,"COc1ccc2c(c1)CCCC2CN(C)CCc1cccc(N)c1 (centres unmarked) [Example 67, 1 ((N-Methylamino)methyl-N-(2-(maminophenyl)ethyl))-6-methoxy tetralin dihydrochloride]"
3.7,174,"COc1ccc2c(c1)CCC2CN(C)CCc1cccs1 (centres unmarked) [Example 37, 1-((N-Methylamino)methyl-N-(2-(2-thienyl)ethyl))-5-methoxy indane hydrochloride]"

SMILES,Ki [nM],alpha-2 - Selectivity Ki alpha-1/Ki alpha 2
"COc1ccc2c(c1)CCCC2CN(C)CCC1CCCC1 (centres unmarked) [Example 6f, 1-((N-methylamino)methyl N-(2-(cyclopentyl)ethyl)) 6-methoxy tetralin hydrochloride]",6.5,332
